Data reported in patent US20080015198A1, “Substituted pyrazoline compounds, their preparation and use as medicaments” (LABORATORIOS DEL DR.ESTEVE S.A., priority 2004, published 2008).

Key:
cannabinoid receptors [1] = experiment: Mouse tetrad model, agonistic effect; type: in vivo, mice; details: 5 mg/kg i.v.; for Agonistic effect B: Hypothermia: unit assumed
Text: (§1) Substances with affinity for cannabinoid receptors are known to produce a wide range of pharmacological effects. It is also known that intravenous administration of a substance with affinity for cannabinoid receptors in mice produces analgesia, hypothermia, sedation and catalepsy. Individually, none of these effects can be considered as proof that a tested substance has affinity for cannabinoid-receptors, since all of these effects are common for various classes of centrally active agents. However, substances, which show all of these effects, i.e. substances that are active in this so-called tetrad model are considered to have affinity for the cannabinoid receptors. It has further been shown that cannabinoid receptor antagonists are higly effective in blocking the effects of a cannabinoid agonist in the mouse tetrad model.
(§2) The tetrad model is described, for example, in the publication of A. C. Howlett et al, International Union of Pharmacology XXVII. Classification of Cannabinoid Receptors, Pharmacol Rev 54, 161-202, 2002 and David R. Compton et al., “In-vivo Characterization of a Specific Cannabinoid Receptor Antagonist (SR141716A): Inhibition of Tetrahydrocannbinol-induced Responses and Apparent Agonist Activity”, J. Pharmacol. Exp. Ther. 277 , 2, 586-594, 1996. The corresponding parts of the description are hereby incorporated by reference.
(§3) Male NMRI mice with a weight of 20-30 g (Harlan, Barcelona, Spain) are used in all of the following experiments.
(§4) Before testing in the behavioral procedures given below, mice are acclimatized to the experimental setting. Pre-Treatment control values are determined for analgesia hot plate latency (in seconds), rectal temperature, sedation and catalepsy.
In order to determine the agonistic activty of the substance to be tested, the mice are injected intravenously with the substance to be tested or the vehicle alone. 15 minutes after injection, latency in hot plate analgesia is measured. Rectal temperature, sedation and catalepsy are measured 20 minutes after injection.
(§5) The hot plate analgesia is determined according to the method described in Woolfe D. et al. “The evaluation of analgesic action of pethidine hydrochloride (Demerol)”, J. Pharmacol. Exp. Ther. 80, 300-307, 1944.
(§6) The mice are placed on a hot plate (Harvard Analgesimeter) at 55±0.5° C. until they show a painful sensation by licking their paws or jumping and the time for these sensations to occur is recorded. This reading is considered the basal value (B). The maximum time limit the mice are allowed to remain on the hot plate in absence of any painful response is 40 seconds in order to prevent skin damage. This period is called the cut-off time (PC).
(§7) Fifteen minutes after the administration of the substance to be tested, the mice are again placed on the hot plate and the afore described procedure is repeated. This period is called the post-treatment reading (PT).
(§8) The degree of analgesia is calculated from the formula:
(§9) % MPE of Analgesia=(PT−B)/(PC−B)×100
(§10) Sedation and ataxia is determined according to the method described in Desmet L. K. C. et al. “Anticonvulsive properties of Cinarizine and Flunarizine in Rats and Mice”, Arzneim. -Forsch. (Frug Res) 25, 9, 1975.
(§11) The percentage of sedation is determined according to the formula:
(§12) % of sedation=arithmetic mean/3×100
(§13) Hypothermia is determined according to the method described in David R. Compton et. al. “In-vivo Characterization of a Specific Cannabinoid Receptor Antagonist (SR141716A) Inhibition of Tetrahydrocannbinol-induced Responses and Apparent Agonist Activity”, J. Pharmacol Exp Ther. 277, 2, 586-594, 1996.

cannabinoid receptors [2] = experiment: Mouse tetrad model, antagonistic effect against Win 55212-2; type: in vivo, mice; details: 5 mg/kg i.v. prior to Win 55212-2 in a dose of 1.25 mg/kg i.v.; for Antagonistic effect A: Hot-Plate test / Antagonistic effect B: Hypothermia: unit assumed
Text: as §1, §2, §3, §4
In order to determine the antagonistic activity the identical procedure is used as for the determination of the agonistic effects, but with the difference that the substance to be evaluated for its antagonistic activity is injectected 5 minutes before the intravenous injection of 1.25 mg/kg Win-55,212 a known cannabinoid-receptor agonist.
as §5, §6, §7, §8, §9, §10, §11, §12, §13

[3] = In-vivo testing for antiobesic activity; details: rats
[4] = In-vivo testing for antidepressant activity, water despair test
Experimental: The in-vivo testing for antidepressant activity of the inventive pyrazoline compounds in the water despair test was carried out as described above.

CB2-Receptor = biological target: T1, CB2-Receptor (Homo sapiens, UniProt P34972); experiment: In-vitro determination of affinity to CB2-receptor, radioligand [3H]-CP55940; type: binding
T1 construct: purchased Receptor Biology, Inc
T1 sequence (P34972 whole entry): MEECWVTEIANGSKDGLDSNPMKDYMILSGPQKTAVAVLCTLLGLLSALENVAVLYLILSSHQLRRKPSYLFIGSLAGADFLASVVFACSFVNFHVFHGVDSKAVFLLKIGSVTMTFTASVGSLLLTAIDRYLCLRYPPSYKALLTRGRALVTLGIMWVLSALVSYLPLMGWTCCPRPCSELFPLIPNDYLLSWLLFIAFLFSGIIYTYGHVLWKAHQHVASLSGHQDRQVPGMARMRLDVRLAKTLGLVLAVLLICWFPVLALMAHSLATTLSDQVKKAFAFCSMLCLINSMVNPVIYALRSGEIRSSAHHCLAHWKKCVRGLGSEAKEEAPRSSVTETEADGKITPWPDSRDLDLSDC
Experimental: Brockie et al., “Agonist-inverse agonist characterization at CB1 and CB2 cannabinoid receptors of L-759633, L759656 and AM630”, British Journal of Pharmacology, 126, 665-672, (1999), whereby the transfected human CB1 and CB2 receptors of Receptor Biology, Inc. are used. The radioligand used for both receptors is [^3H]-CP55940.
The affinity of the inventive substituted pyrazoline compounds to CB1/CB2 receptors was determined as described above.

| melting point | Ki (CB2-Receptor) | Structure (SMILES) | Agonistic effect A: Hot-Plate test (cannabinoid receptors [1]) | Agonistic effect C: Catalepsy (cannabinoid receptors [1]) | Agonistic effect D: Sedation (cannabinoid receptors [1]) | Agonistic effect B: Hypothermia (cannabinoid receptors [1]) | Antagonistic effect C: Catalepsy (cannabinoid receptors [2]) | Antagonistic effect D: Sedation (cannabinoid receptors [2]) | Antagonistic effect A: Hot-Plate test (cannabinoid receptors [2]) | Antagonistic effect B: Hypothermia (cannabinoid receptors [2]) | body weight ([3]; 10 mg/kg intraperitoneally daily over 14 days, FIG. 1) | food intake ([3]; 10 mg/kg intraperitoneally daily over 14 days, FIG. 2) | body weight effect after the treatment is ended ([3]; after end of 14 days of 10 mg/kg i.p. daily, FIG. 1) | immobility time [4] | struggling time [4] |
| --- | --- | --- | --- | --- | --- | --- | --- | --- | --- | --- | --- | --- | --- | --- | --- |
| 134 to 138 °C | – | O=C(Nn1cnnc1)C1=NN(c2ccc(Cl)cc2Cl)C(c2ccc(Cl)cc2)C1 (stereo not shown) | – | – | – | – | – | – | – | – | – | – | – | – | – |
| 150 to 155 °C | – | CN1CCN(NC(=O)C2=NN(c3ccc(Cl)cc3Cl)C(c3ccc(Cl)cc3)C2)CC1.Cl (stereo not shown) | – | – | – | – | – | – | – | – | – | – | – | – | – |
| – | – | O=C(NN1CCCCC1)C1=NN(c2ccc(Cl)cc2Cl)C(c2ccc(Cl)cc2)C1 (stereo not shown) [Example 1, N-piperidinyl-5-(4-chlorophenyl)-1-(2,4-dichlorophenyl)-4,5-dihydro-1H-pyrazole-3-carboxamide] | 0% | 0% | 0 | 0% | 100% | 100% | 74% | 100% | lowered | reduction of food intake | also observed after the treatment is ended | positive effects | positive effects |
| 105 to 110 °C | ~1000 nM | O=C(C1=NN(c2ccc(Cl)cc2Cl)C(c2ccc(Cl)cc2)C1)N1CCCCC1 (stereo not shown) [Example 5, [5-(4-Chloro-phenyl)-1-(2,4-dichloro-phenyl)-4,5-dihydro-1H-pyrazol-3-yl]-piperidin-1-yl-methanone] | 0% | 0% | 0 | 50% | 20% | 20% | 50% | 40% | – | – | – | – | – |
